# Patent US9592214B2, “Compounds for the treatment of autism in a baby child” (INSERM (INSTITUT NATIONAL DE LA SANTE ET DE LA RECHERCHE …, priority 2010, dated 2017)
# Key:
# [1] = tested on: hippocampal CA3 pyramidal cells; experiment: Acute application of bumetanide to hippocampal slices: DFGABA from cell-attached single GABAA channel recordings; format: cell-based, rat; conditions: acute bumetanide 10 μM
# Protocol: Time-mated female Wistar rats at gestational day E7-8 were housed under standard laboratory conditions. […] The offspring were used for experiments on embryonic day 20 (E20) and postnatal (P) days 0, 2, 4, 7, 15 and 30 (after being weaned at P23). Experiments were carried out on offspring of either sex.
# Hippocampal slices (300-500 nm thick) were prepared using a Microm tissue slicer (International GmbH, Germany) as described previously (Tyzio et al. 2006 Science 314, 1788; Tyzio et al, 2008, Eur J. Neurosci. 27(10):2515-28). Slices were kept in oxygenated (95% O2/5% CO2) artificial cerebrospinal fluid (ACSF) of the following composition (in mM): NaCl 126, KCl 3.5, CaCl2 2.0, MgCl2 1.3, NaHCO3 25, NaH2PO4 1.2 and glucose 11 (pH 7.4) at room temperature (20-22° C.) at least 1 hour before use.
# Bumetanide (10 μM), Oxytocin (1 μM) and Isoguvacine (2 μM) were directly added to the perfusion solutions. […] All drugs used were purchased from Sigma.
# [2] = tested on: hippocampal CA3 pyramidal cells; experiment: DFGABA in hippocampal CA3 pyramidal cells of offspring after in utero VPA / maternal bumetanide pretreatment; format: in vivo, rat; conditions: for DFGABA (mV), mean ± S.E.: P15 VPA rats, maternal bumetanide pretreatment (2-2.5 mg/kg in drinking water, 1 day before delivery)
# Protocol: (§1) Time-mated female Wistar rats at gestational day E7-8 were housed under standard laboratory conditions. The in utero valproic acid (VPA) rodent model of autism spectrum disorders has been previously described in detail. Briefly, the sodium salt of VPA (Sigma-Aldrich) was dissolved in physiological saline solution to a concentration of 300 mg/ml. Pregnant rats received a single intra-peritoneal dose of 600 mg/kg on gestational day 12 (E12). The control dams received a single similar volume injection of saline at the same gestational time-point. Dams were housed individually and allowed to raise their own litters. The offspring were used for experiments on embryonic day 20 (E20) and postnatal (P) days 0, 2, 4, 7, 15 and 30 (after being weaned at P23). Experiments were carried out on offspring of either sex.
# (§2) Experiments were performed on fetuses and neonatal rat pups. We removed E20 rats from deeply anesthetized dams [subcutaneous injection of a mixture of xylazine (Rompun 2%; used at 0.05%) and ketamine (Imalgene 1000 used at 50 g/l)]. Hippocampal slices ([…] thick) were prepared using a Microm tissue slicer (International GmbH, Germany) as described previously (Tyzio et al. 2006 Science 314, 1788; Tyzio et al, 2008, Eur J. Neurosci. 27(10):2515-28). Slices were kept in oxygenated (95% O2/5% CO2) artificial cerebrospinal fluid (ACSF) of the following composition (in mM): NaCl 126, KCl 3.5, CaCl2 2.0, MgCl2 1.3, NaHCO3 25, NaH2PO4 1.2 and glucose 11 (pH 7.4) at room temperature (20-22° C.) at least 1 hour before use.
# For recordings, slices were placed into a conventional fully submerged chamber superfused with ACSF at a rate of 2-3 ml/min at room temperature. Patch clamp recordings from visually identified CA3 pyramidal cells in cell-attached configuration were performed using EPC-10 amplifier (HEKA Elektronik Dr. Schulze GmbH, Lambrecht/Pfalz, Germany). Patch pipette solution for recordings of single GABAA channels contained (in mM): NaCl 120, KCl 5, TEA-Cl 20, 4-aminopyridine 5, CaCl2 0.1, MgCl2 10, glucose 10, Hepes-NaOH 10 buffered to pH 7.2-7.3 and GABA 2 μM. Analysis of currents through single channels and current-voltage relationships were performed using Clampfit 9.2 (Axon Instruments, Union City, Calif.). Recordings were digitized (10 kHz) online with Digidata-1200 interface card (Axon Instruments, Union City, Calif.) and analyzed offline with Axon package, MiniAnalysis (S (Synaptsoft, Decatur, Ga.), and Origin (Microcal Software, Northampton, Mass.).
# (§3) Bumetanide (10 μM), Oxytocin (1 μM) and Isoguvacine (2 μM) were directly added to the perfusion solutions. Bumetanide pretreatment (2-2.5 mg/kg) was given to the dams in drinking water. All drugs used were purchased from Sigma. SSR126768A (Sanofi-Synthelabo) pretreatment (1 mg/kg) was given to the dams in drinking water.
# If the polarity of GABA actions at delivery produces long terms effects in offsprings, then restoring low [Cl^−]i and inhibitory GABA at delivery might restore physiological parameters in juvenile rodents. To test this hypothesis, pregnant females were treated orally 1 day before delivery with bumetanide (2-2.5 mg/kg in drinking water) and juvenile offspring neurons recorded at P15. […] In VPA rats, GABAergic inputs are excitatory and contribute to hyperexcitability of the network. Bumetanide decreases [Cl^−]i and consequently reduces contribution of excitatory GABAergic inputs in the overall network activity.
# hippocampal slices = experiment: Effects of isoguvacine on spike frequency, extracellular field potential recordings in hippocampal slices; format: cell-based, rat; conditions: for Effects of isoguvacine on frequency of spikes in extracellular recordings (% of control), mean ± S.E.: VPA rats with maternal bumetanide pretreatment, P15
# Protocol: as §2
# Extracellular field potentials and multi-unit activity (MUA) recordings Recording were made in the hippocampal slices using tungsten wire electrodes (diameter: 50 μm, California Fine Wire, Grover Beach, Calif.) and a low-noise multichannel DAM-8A amplifiers (WPI, GB; […]; gain: ×1000). The signals were digitized using an analogue-to-digital converter (Digidata 1440A, Axon Instruments, USA). pCLAMP 10.1, Clampfit 10.1 (Axon Instruments, USA), MiniAnalysis 6.03 (Synaptosoft, Decatur, Calif.) and Origin 7.5 (Microcal Software, USA) programs were used for the acquisition and analysis of the synaptic activities. Sampling interval per signal was 100 microseconds (10 kHz).
# as §3
# [3] = tested on: Valproate rat model of autism; experiment: In vivo EEG recordings in the CA3 area of hippocampus of head-restrained rats; conditions: for Integral power spectra of EEG recordings, mean ± S.E.M.: VPA rats with maternal BUM pretreatment, P13-15
# Protocol: as §1
# Head-fixed rat pups of age P13-P15 were prepared for extracellular recording under isoflurane anesthesia. The skin and periosteum were removed from the skull, which was then covered by glue and dental cement except for a 4-9 mm^2 window above the somatosensory cortex from one or two hemispheres for the silicon probe penetration (4.0-4.2 mm lateral to midline and 2.2-2.5 mm caudal to bregma) and for the reference electrode (1.0-1.5 mm lateral to midline and 6.0-6.5 mm caudal to bregma). The rat was positioned in the stereotaxic apparatus. A 1 mm-diameter burr hole was drilled in the skull; the dura was cut and removed. Recordings were made 1 h after recovery from anesthesia. Pups were kept restrained for <3 h and were closely monitored for signs of stress and to ensure that they spent a normal proportion of their time sleeping. The outside temperature was maintained between 35 and 36° C. The animals were kept in low-light conditions throughout all experiments. 16-site linear silicone probe (NeuroNexus Technologies) coupled to a direct-current amplifier (Molecular Devices) and dunked previously in fluorescent dye (DiI, Invitrogen) was slowly penetrated via the hole at […] depth under the angle 30° in the coronal plane. EEGs were recorded during 2 hours, using a 16-channel amplifier (A-M System, Inc.) and digitized at 5 kHz using Axoscope software (Molecular Deviced). Recordings were amplified and high-pass filtered at 0.3 Hz in Axoscope. Silicone probe location was verified postmortem via dye localization. To quantify the frequency band integral power the traces were band-pass filtered at frequency bands […]) θ-(4-7 Hz), α-(7-12 Hz), β-(12-25 Hz), Low γ-(25-60 Hz), High γ-(60-120 Hz) and Fast oscillations-(120-500 Hz)). Fast Fourier Transform (FFT) was applied with Clampfit (Molecular Devices). Integrals of FFT power spectra were taken and averaged with OriginPro (OriginLab Corporation).
# as §3
# [4] = P15 VPA offspring, maternal bumetanide pretreatment, result in words
smiles,measurement,setting,value
CCCCNc1cc(C(=O)O)cc(S(N)(=O)=O)c1Oc1ccccc1 [bumetanide],[Cl−]i,"[1]; P0 VPA neurons, result in words",significantly decreased
same,"DFGABA mV), mean±",[1]; P0 VPA rats,−2.4 ± 1.2 (n = 21) mV
same,"DFGABA mV), mean±",[1]; P0 control rats,−5.3 ± 0.7 (n = 17) mV
same,DFGABA values in offsprings,[2]; [4],restored control DFGABA values
same,"DFGABA (mV), mean ± S.E.",[2],0.4±1.1 mV
same,"DFGABA (mV), mean ± S.E.",[2]; listed as BUM,0.4 ± 1.1 (n = 58) mV
same,excitatory actions of the GABAAR agonist isoguvacine,hippocampal slices; [4],suppressed the excitatory actions
same,"Effects of isoguvacine on frequency of spikes in extracellular recordings (% of control), mean ± S.E.",hippocampal slices,82.8±10.7 % of control
same,"Effects of isoguvacine on frequency of spikes in extracellular recordings (% of control), mean ± S.E.",hippocampal slices; listed as BUM,"82.8 ± 10.7 (n = 9), P < 0.05 % of control"
same,EEG oscillatory hyperactivity and power of network oscillations,"[3]; P13-P15 VPA offspring, maternal bumetanide pretreatment, result in words",abolished hyperactivity and restored physiological values
same,"Integral power spectra of EEG recordings, mean ± S.E.M.",[3]; frequency band 0.5-4 Hz,88.53 ± 27.57
same,"Integral power spectra of EEG recordings, mean ± S.E.M.",[3]; frequency band 4-7 Hz,15.40 ± 4.25
same,"Integral power spectra of EEG recordings, mean ± S.E.M.",[3]; frequency band 7-12 Hz,7.09 ± 1.56
same,"Integral power spectra of EEG recordings, mean ± S.E.M.",[3]; frequency band 12-25 Hz,6.35 ± 1.52
same,"Integral power spectra of EEG recordings, mean ± S.E.M.",[3]; frequency band 25-60 Hz,0.97 ± 0.20
same,"Integral power spectra of EEG recordings, mean ± S.E.M.",[3]; frequency band 60-120 Hz,0.32 ± 0.06
same,"Integral power spectra of EEG recordings, mean ± S.E.M.",[3]; frequency band 120-500 Hz,1.18 ± 0.19
